Among the test systems are CAKI-1 renal; EKVX NSCLC; SR leukemia; OVCAR-3 ovarian; HOP-92 NSCLC; BT-549 breast; RPMI-8226 leukemia; SK-OV-3 ovarian; NCI-H522 lung; SF-295 CNS.
Holding throughout (assay): growth of human tumour cells (NCI), 48 h

Several values for one entry are separate records, joined by “and”; a condition that tells them apart may be missing. Equal values may be shown once.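 A five-concentration, 48-hour dose response in 96-well plates underlies each endpoint, interpolated linearly between surrounding concentrations. Here, GI50 denotes the concentration required for 50% inhibition of growth. TGI denotes the concentration required for complete inhibition of growth.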 Bounds are passed on as bounds.

From PubChem BioAssay (NCI) come the findings set out here.

`Cc1nc(-c2nc(-c3ccc(OC(F)(F)F)cc3)no2)nn1Cc1cccc(N2CCC(S(C)(=O)=O)CC2)c1`: the GI50 in the assay with CAKI-1 renal is 3.28 µM; in the assay with EKVX NSCLC it was 1.6 µM; with SR leukemia, 0.397 µM; in the assay on OVCAR-3 ovarian, 11.6 µM; in the assay on HOP-92 NSCLC, 28.9 µM; in the assay on BT-549 breast, 1.07 µM. In addition, the GI50 was 16.3 µM in the assay on SK-OV-3 ovarian, above 100 µM in the assay with NCI-H522 lung and 0.0227 µM in the assay on SF-295 CNS. In addition, the TGI is 29.8 µM in the assay on CAKI-1 renal; 48.6 µM in the assay on EKVX NSCLC; 97.9 µM in the assay on SR leukemia; above 100 µM in the assay with OVCAR-3 ovarian; above 89 µM in the assay on HOP-92 NSCLC; 38.6 µM with BT-549 breast. The TGI was above 100 µM with RPMI-8226 leukemia, 89.8 µM in the assay on SK-OV-3 ovarian, above 100 µM in the assay on NCI-H522 lung and above 77 µM with SF-295 CNS.
Turning to `Cc1cc(O)cc(C)c1/C=C/c1cncc(C(N)=O)c1`, the GI50 in the assay with CAKI-1 renal is 4.24 µM; in the assay on EKVX NSCLC it was 7.93 µM; with SR leukemia, 1.06 µM; in the assay on OVCAR-3 ovarian it was 0.885 µM; in the assay with HOP-92 NSCLC, 1.5 µM; in the assay with BT-549 breast, 4.51 µM. Also, the GI50 with RPMI-8226 leukemia was 7.91 µM; in the assay with SK-OV-3 ovarian, 3.66 µM; in the assay on NCI-H522 lung it was 0.779 µM; in the assay on SF-295 CNS, 2.9 µM. Also, the TGI in the assay on CAKI-1 renal was above 25 µM; in the assay on EKVX NSCLC it was above 25 µM; in the assay with SR leukemia, above 25 µM; in the assay on OVCAR-3 ovarian, 3.93 µM; in the assay on HOP-92 NSCLC, above 14.7 µM; in the assay with BT-549 breast it was above 25 µM. Moreover, the TGI in the assay on RPMI-8226 leukemia was above 25 µM; with SK-OV-3 ovarian, above 17.6 µM; with NCI-H522 lung, 3.84 µM; in the assay with SF-295 CNS, above 25 µM.
For `CC(N)(/C=C/c1ccccc1)C(=O)O` (configuration not stated), the TGI in the assay on CAKI-1 renal, in the assay on EKVX NSCLC, in the assay on SR leukemia, in the assay with OVCAR-3 ovarian, with HOP-92 NSCLC and in the assay with BT-549 breast was above 100 µM in each case. Moreover, the TGI with RPMI-8226 leukemia, in the assay on SK-OV-3 ovarian, in the assay with NCI-H522 lung and in the assay with SF-295 CNS was above 100 µM throughout.
As to `O=[N+]([O-])c1ccc(C2CC(c3ccccc3)=Nc3ccccc3S2)cc1` (configuration not stated), the GI50 was above 100 µM in the assay on CAKI-1 renal; above 100 µM in the assay on EKVX NSCLC; 3.59 µM with SR leukemia; 11.8 µM in the assay on OVCAR-3 ovarian; 24.5 µM in the assay with HOP-92 NSCLC; above 100 µM in the assay on BT-549 breast. Besides, the GI50 in the assay with RPMI-8226 leukemia is 2.82 µM; with SK-OV-3 ovarian, above 100 µM; in the assay with NCI-H522 lung, above 100 µM; with SF-295 CNS it was above 100 µM. The TGI in the assay on CAKI-1 renal, with EKVX NSCLC, in the assay with SR leukemia, in the assay on OVCAR-3 ovarian, in the assay on HOP-92 NSCLC and in the assay on BT-549 breast was above 100 µM throughout. For the same molecule, the TGI with RPMI-8226 leukemia is 8.29 µM; with SK-OV-3 ovarian, above 100 µM; in the assay with NCI-H522 lung it was above 100 µM; with SF-295 CNS, above 100 µM.
As for `CCN1C(=O)N(CC)C2C1NN=c1s/c(=C\c3ccco3)c(=O)n12` (configuration not stated), the GI50 in the assay on CAKI-1 renal was 0.468 µM; with EKVX NSCLC, 1.7 µM; in the assay with SR leukemia it was 0.196 µM; in the assay with OVCAR-3 ovarian it was 0.334 µM; with HOP-92 NSCLC it was 0.349 µM; with BT-549 breast it was 0.791 µM. The GI50 in the assay on RPMI-8226 leukemia is 0.438 µM; with SK-OV-3 ovarian it was 0.816 µM; with NCI-H522 lung, 0.33 µM; in the assay with SF-295 CNS it was 0.47 µM. The TGI was above 89.7 µM in the assay on CAKI-1 renal; above 100 µM with EKVX NSCLC; above 100 µM in the assay with SR leukemia; above 100 µM in the assay on HOP-92 NSCLC; above 100 µM in the assay on BT-549 breast; above 100 µM in the assay with RPMI-8226 leukemia. Further, the values for the TGI in the assay on SK-OV-3 ovarian and in the assay on SF-295 CNS were above 100 µM and above 44.6 µM, respectively.
With `C#CCN(Cc1nc2cc(C(F)(F)F)ccc2nc1-c1ccccc1)c1ccc(C)cc1`, the GI50 is 8.15 µM with CAKI-1 renal; 29.1 µM with EKVX NSCLC; 16.1 µM in the assay on SR leukemia; 3.7 µM in the assay on OVCAR-3 ovarian; 31.7 µM with HOP-92 NSCLC; 22.2 µM in the assay on BT-549 breast. The GI50 with RPMI-8226 leukemia was above 48.5 µM; in the assay on SK-OV-3 ovarian it was 8.56 µM; in the assay on NCI-H522 lung, 3.3 µM; with SF-295 CNS, 4.78 µM. In addition, the TGI was above 43.4 µM with CAKI-1 renal; above 62.1 µM with EKVX NSCLC; 41.3 µM in the assay on SR leukemia; 16.8 µM with OVCAR-3 ovarian; above 84.8 µM with HOP-92 NSCLC; 69.9 µM with BT-549 breast. Besides, the TGI in the assay with RPMI-8226 leukemia is above 76.3 µM; in the assay with SK-OV-3 ovarian, above 26.4 µM; in the assay on NCI-H522 lung it was 26 µM; in the assay with SF-295 CNS it was above 31.8 µM.
For the molecule `CC1=CCCC2C1(C)CCC(C)C2(C)Cc1cc(O)ccc1O` (configuration not stated), the GI50 is 14.1 µM with CAKI-1 renal; 7.71 µM in the assay on EKVX NSCLC; 9.97 µM in the assay on OVCAR-3 ovarian; 3.65 µM with NCI-H522 lung; 10.4 µM with SF-295 CNS. The TGI with CAKI-1 renal was 27.2 µM and 22.5 µM; in the assay on EKVX NSCLC it was 22 µM and 18.8 µM; with SR leukemia, 24.7 µM; in the assay with OVCAR-3 ovarian it was 22.2 µM and 19.3 µM; with HOP-92 NSCLC, 22.6 µM and 15.2 µM; with BT-549 breast, 16.2 µM. In addition, the TGI with RPMI-8226 leukemia was 9.97 µM and 8.53 µM; in the assay on SK-OV-3 ovarian, 29.9 µM and 39.1 µM; in the assay on NCI-H522 lung it was 12.7 µM and 8.37 µM; in the assay with SF-295 CNS, 23.5 µM and 21 µM.
As to `CCCc1cc(=O)n2c(C(=O)Nc3cccc(C(=O)OCC)c3)c(C(=O)Nc3ccc(F)cc3)sc2n1`, the GI50 in the assay with CAKI-1 renal was 4.95 µM; with EKVX NSCLC, above 140 µM; with SR leukemia it was 51.7 µM; with OVCAR-3 ovarian, 3.17 µM; in the assay on HOP-92 NSCLC, 1.33 µM; in the assay with BT-549 breast, above 140 µM. In addition, the GI50 is 6.2 µM with RPMI-8226 leukemia, 23.9 µM in the assay with SK-OV-3 ovarian, 65 µM in the assay with NCI-H522 lung and 44.6 µM in the assay on SF-295 CNS. The TGI was 28.2 µM in the assay with CAKI-1 renal; above 140 µM in the assay on EKVX NSCLC; above 140 µM in the assay on SR leukemia; 7.75 µM with OVCAR-3 ovarian; 7.99 µM in the assay with HOP-92 NSCLC; above 140 µM in the assay on BT-549 breast. The TGI is above 140 µM in the assay on RPMI-8226 leukemia, 75 µM with SK-OV-3 ovarian, above 140 µM in the assay with NCI-H522 lung and above 140 µM in the assay on SF-295 CNS.
`N=C(N)SCc1c2ccccc2c(CSC(=N)N)c2ccccc12`: the GI50 with CAKI-1 renal was 7.28 µM; with EKVX NSCLC, 13.4 µM; with SR leukemia it was 0.408 µM; in the assay on OVCAR-3 ovarian it was 12.4 µM; with HOP-92 NSCLC, 2.8 µM; with BT-549 breast it was 16.9 µM. In addition, the GI50 was 2.56 µM in the assay on RPMI-8226 leukemia, 10.4 µM in the assay on SK-OV-3 ovarian, 3.23 µM in the assay on NCI-H522 lung and 5.25 µM in the assay with SF-295 CNS. The TGI in the assay on CAKI-1 renal amounted to 27.7 µM; in the assay with EKVX NSCLC, 51.6 µM; in the assay with SR leukemia it was 3.03 µM; in the assay on OVCAR-3 ovarian it was 30.2 µM; with HOP-92 NSCLC, 19.9 µM; in the assay on BT-549 breast it was 58.3 µM. Further, the TGI in the assay with RPMI-8226 leukemia is 16.8 µM; with SK-OV-3 ovarian, 22.6 µM; in the assay on NCI-H522 lung it was 30.7 µM; with SF-295 CNS, 24.2 µM.
On to `COC(=O)C1=CO[C@@H](OC2OC(CO)C(O)C(O)C2O)[C@H]2[C@@H](C)[C@@H](O)[C@@H](O)[C@@H]12` (some centres not stated), for which the TGI in the assay with CAKI-1 renal, with EKVX NSCLC, in the assay with SR leukemia, in the assay on OVCAR-3 ovarian, with HOP-92 NSCLC and in the assay with BT-549 breast was above 100 µM each time. The TGI in the assay with RPMI-8226 leukemia, in the assay on SK-OV-3 ovarian, in the assay with NCI-H522 lung and in the assay with SF-295 CNS was above 100 µM each time.
